From patent US5216183A, “Cyclopentanone/cyclopentenone derivative” (Teijin Limited, priority 1988, dated 1993)
In brackets after ≈: the same amount, converted by molar mass.

Legend:
[1] = tested on: L1210 tumor cells; test: Measurement of anticancer activity (L1210 growth, 2 days, trypan blue); type: cell-based; settings: Mus musculus, 48 h, Table 25, L1210, 2.5×10^4 cells/ml
Protocol: Tumor cells were grown in an RPMI 1640 medium containing of 10% fetal calf serum.
The compound was dissolved in 99.5% ethanol, adjusted before use so that the final concentration of ethanol was 0.1% or less, and added to the medium.
The control was 0.1% ethanol, and L1210 tumor cells were inoculated in the medium in a concentration of 2.5×10^4 cells/ml and grown for 2 days. The number of surviving cells were measured by trypan blue staining.

[2] = tested on: L1210 cancer cells; test: Evaluation of antitumor activity (L1210 growth, 4 days, trypan blue); type: cell-based; settings: Mus musculus, 96 h, Table 37, L1210, 1×10^5 cells/ml
Protocol: Cancer cells were grown in an RPMI 1640 culture medium containing 10% of fetal calf serum.
The compound to be tested was dissolved in 99.5% ethanol and was added to the medium so that the final concentration of the ethanol was 0.1% or less. As a control, 0.1% ethanol was used. L1210 cancer cells were inoculated at a concentration of 1×10^5 cells/ml in the medium and were grown for 4 days. The number of live cells was determined by trypan blue staining.

[3] = tested on: human osteoblast (KK-3, 18PDL); test: Determination (2) of bone formation activity (KK-3, 14 days); type: cell-based; settings: Table 39; for ALP: control 0.44 ± 0.12; for Ca: control 106 ± 12; for P: control 61 ± 10
Protocol: (§1) Human osteoblast (KK-3, 18PDL) was cultured in α-MEM containing 10% fetal bovine serum, and when a stable growth was attained, a predetermined concentration of the compound was added in the presence of 2 mM α-glycerophosphoric acid salt, followed by treatment for 14 days. The cell layer was washed with physiological salt solution and the alkali phosphatase activity then measured by absorption at OD415. Then, calcium and phosphorus were extracted with a 2N hydrochloric acid solution and quantitated.

[4] = tested on: human osteoblast (KK-3, 18PDL); test: Determination (3) of bone formation activity (KK-3, 14 days); type: cell-based; settings: Table 40; for ALP: control 0.72 ± 0.17; for P: control 51 ± 5; for Ca: control 90 ± 8
Protocol: as §1, with “a physioligical” for “physiological”, “Next,” for “Then,”

[5] = tested on: human osteoblast (SAM-1, 12PDL); test: Determination (1) of bone formation activity (SAM-1, 25 days); type: cell-based; settings: Table 38; for Ca per DNA: control 0.386 ± 0.245; for ALP per DNA: control 1.148 ± 0.050; for P per DNA: control 1.528 ± 0.316
Protocol: Human osteoblast (SAM-1, 12PDL) was cultured in α-MEM containing 10% fetal bovine serum, and when a stable growth was attained, a predetermined concentration of the compound was added in the presence of 2 mM α-glycerophosphoric acid salt, followed by treatment for 25 days. The cell layer was washed with Hank's solution and the alkali phosphatase activity then measured by absorption at OD410. Next, calcium and phosphorus were extracted with a 5% perchloric acid solution and quantitated, and DNA was extracted with 5% perchloric acid at 90° C., and the weight thereof quantitated. These evaluations were conducted according to the methods of Koshihara et al (Biochemical and Biophysical Research Communication Vol 145, No. 2, 1987, p. 651).

[6] = tested on: human osteoblasts; settings: Koshihara et al., Biochemical Society of Japan (Preprints, 1988, p.767); cited from earlier work

`CSC1=CC(CCCCOc2ccccc2)C(=CC=CC(O)CCCO)C1=O` (stereo not drawn) showed an IC50 [1] of 1.9 µg/mL (≈ 4.72 µM).
`CCCCCC(O)C=CC1C=C([S+](C)[O-])C(=O)C1=CCCCCCC(=O)OC` (stereo not drawn) [2-methylsulfinyl-5-(6-methoxycarbonyl-hexylidene)-4-(3-hydroxy-1-octenyl)-2-cyclopentenone] gave an IC50 [2] of 4 µg/mL (≈ 9.74 µM).
`C[S+]([O-])C1=CC(O)(CCCCOc2ccccc2)/C(=C\C=C\C(O)CCCO)C1=O` (stereo not drawn) [2-methylsulfinyl-5-[( -- E)-4,7-dihydroxy-2-heptenylidene]-4-(4-phenoxybutyl)-4-hydroxy-2-cyclopentenone] showed an IC50 [2] of 1 µg/mL (≈ 2.3 µM).
`C[S+]([O-])C1=CC(=CCCCOc2ccccc2)/C(=C/C=C/C(O)CCCO)C1=O` (stereo not drawn) [2-methylsulfinyl-5-[( -- Z)-4,7-dihydroxy-2-heptenylidene]-4-(4-phenoxybutylidene)-2-cyclopentenone] showed an IC50 [2] of 0.1 µg/mL (≈ 0.24 µM).
`CS(=O)(=O)C1=CC(O)(CCCCOc2ccccc2)/C(=C\C=C\C(O)CCCO)C1=O` (stereo not drawn) [2-methylsulfonyl-5-[( -- E)-4,7-dihydroxy-2-heptenylidene]-4-(4-phenoxybutyl)-4-hydroxy-2-cyclopentenone] showed an IC50 [2] of 2 µg/mL (≈ 4.44 µM).
In the case of `CSC1=CC(O)(CCCCOc2ccccc2)/C(=C\C=C\C(O)CCCO)C1=O` (stereo not drawn) [2-methylthio-5-[( -- E)-4,7-dihydroxy-2-heptenylidene]-4-(4-phenoxybutyl)-4-hydroxy-2-cyclopentenone], the ALP ([3]; 10^-6 M) is reported as 0.97 OD 415 nm/dish, the Ca ([3]; 10^-6 M) is reported as 168 μg/dish and the ALP ([3]; 10^-7 M) is reported as 0.56 ± 0.08 OD 415 nm/dish. For the same compound, the P ([3]; 10^-7 M) was 64 ± 3 μg/dish, the Ca ([3]; 10^-7 M) was 114 ± 4 μg/dish and the ALP ([3]; 10^-8 M) was 0.24 ± 0.02 OD 415 nm/dish. The P ([3]; 10^-8 M) was 47 ± 2 μg/dish and the Ca ([3]; 10^-8 M) was 87 ± 6 μg/dish.
For `CSC1=CC(=CCCCOc2ccccc2)C(=C/C=C\C(O)CCCO)C1=O` (stereo not drawn) [2-methylthio-5-[( -- Z)-4,7-dihydroxy-2-heptenylidene]-4-(4-phenoxybutylidene)-2-cyclopentenone], the ALP ([4]; 10^-6 M) was 0.94 ± 0.11 OD 415 nm/dish, the P ([4]; 10^-6 M) was 60 ± 0.5 μg/dish and the Ca ([4]; 10^-6 M) was 109 μg/dish. It also gave an ALP ([4]; 10^-7 M) of 0.94 ± 0.07 OD 415 nm/dish, a P ([4]; 10^-7 M) of 48 ± 4 μg/dish and a Ca ([4]; 10^-7 M) of 85 ± 10 μg/dish.
`O=C1C(SC2CCCCC2)=CC(O)(CCCCOc2ccccc2)C1=CC=CC(O)CCCO` (stereo not drawn) [drawing 1059] gave an IC50 [1] of 0.78 µg/mL (≈ 1.6 µM).
For `COC(=O)COc1cccc(C=C2C(=O)C(SC)=CC2(O)CCCCOc2ccccc2)c1` (stereo not drawn) [drawing 1060], the IC50 [1] was 0.83 µg/mL (≈ 1.77 µM).
Compound `CCOc1ccc2nc(SC3=CC(O)(CCCCOc4ccccc4)C(=CC=CC(O)CCCO)C3=O)sc2c1` (stereo not drawn) [drawing 1061] has an IC50 [1] of 0.02 µg/mL (≈ 0.0344 µM).
In the case of `Cn1ccnc1SC1=CC(O)(CCCCOc2ccccc2)C(=CC=CC(O)CCCO)C1=O` (stereo not drawn) [drawing 1062], the IC50 [1] is reported as 0.15 µg/mL (≈ 0.31 µM).
`CCCCC1=C(Sc2nccn2C)C(=O)C(=CC=CC(O)CCCO)C1(O)CCCCOc1ccccc1` (stereo not drawn) [drawing 1063] gave an IC50 [1] of 2.3 µg/mL (≈ 4.25 µM).
In the case of `CSC1=CC(O)C(=CC=CC(O)CCCO)C1=O` (stereo not drawn) [drawing 1064], the IC50 [1] is reported as 0.1 µg/mL (≈ 0.37 µM).
In the case of `Cn1ccnc1SC1=CC(O)(CCCCOc2ccccc2)C(C(O)C=CC(O)CCCO)C1=O` (stereo not drawn) [drawing 1066], the IC50 [1] is reported as 0.32 µg/mL (≈ 0.637 µM).
With `CCCCCC(O)C=CC1C=C(SC)C(=O)C1=CCCCCCC(=O)OC` (stereo not drawn) [drawing 1097, 2-methylthio-5-(6-methoxycarbonyl-hexylidene)-4-(3-hydroxy-1-octenyl)-2-cyclopentenone] the IC50 [2] was 5 µg/mL (≈ 12.7 µM).
Work on `CSC1=CC(O)(CCCCOc2ccccc2)/C(=C/C=C/C(O)CCCO)C1=O` (stereo not drawn) [drawing 1101, 2-methylthio-5-[( -- Z)-4,7-dihydroxy-2-eptenylidene]-4-(4-phenoxybutyl)-4-hydroxy-2-cyclopentenone] yielded an IC50 [2] of 1.2 µg/mL (≈ 2.87 µM).
Work on `C[S+]([O-])C1=CC(O)(CCCCOc2ccccc2)/C(=C/C=C/C(O)CCCO)C1=O` (stereo not drawn) [drawing 1102, 2-methylsulfinyl-5-[( -- Z)-4,7-dihydroxy-2-heptenylidene]-4-(4-phenoxybutyl)-4-hydroxy-2-cyclopentenone] yielded an IC50 [2] of 1 µg/mL (≈ 2.3 µM).
`CSC1=CC(=CCCCOc2ccccc2)/C(=C/C=C/C(O)CCCO)C1=O` (stereo not drawn) [drawing 1103, 2-methylthio-5-[( -- Z)-4,7-dihydroxy-2-eptenylidene]-4-(4-phenoxybutylidene)-2-cyclopentenone] gave an IC50 [2] of 3.5 µg/mL (≈ 8.74 µM).
With `CSC1=CC(O)(CCCCOc2ccccc2)/C(=C/C=C/C(O)CCCO)C1=O` (stereo not drawn) [drawing 1105, 2-methylthio-5-[( -- Z)-4,7-dihydroxy-2-heptenylidene]-4-(4-phenoxybutyl)-4-hydroxy-2-cyclopentenone] the “Ca per DNA” value ([5]; 10^-6 M) was 29.410 μg/μg DNA, the “ALP per DNA” value ([5]; 10^-6 M) was 1.447 OD 410 nm/μg DNA and the “P per DNA” value ([5]; 10^-6 M) was 5.743 ± 0.630 μg/μg DNA. For the same compound, the “Ca per DNA” value ([5]; 10^-7 M) was 8.847 ± 1.485 μg/μg DNA, the “ALP per DNA” value ([5]; 10^-7 M) was 0.333 ± 0.039 OD 410 nm/μg DNA and the “P per DNA” value ([5]; 10^-7 M) was 5.270 ± 0.144 μg/μg DNA.
With `CSC1=CC(O)(CCCCOc2ccccc2)/C(=C/C=C/C(O)CCCO)C1=O` (stereo not drawn) [drawing 1106, 2-methylthio-5-[( -- Z)-4,7-dihydroxy-2-heptenylidene]-4-(4-phenoxybutyl)-4-hydroxy-2-cyclopentenone] the ALP ([3]; 10^-6 M) was 1.12 OD 415 nm/dish, the Ca ([3]; 10^-6 M) was 168 μg/dish and the ALP ([3]; 10^-7 M) was 0.48 ± 0.08 OD 415 nm/dish. For the same compound, the P ([3]; 10^-7 M) was 63 ± 6 μg/dish, the Ca ([3]; 10^-7 M) was 111 ± 9 μg/dish and the ALP ([3]; 10^-8 M) was 0.28 ± 0.06 OD 415 nm/dish. For the same compound, the P ([3]; 10^-8 M) was 47 ± 6 μg/dish and the Ca ([3]; 10^-8 M) was 84 ± 10 μg/dish.
`CSC1=CC(=CCCCOc2ccccc2)/C(=C/C=C/C(O)CCCO)C1=O` (stereo not drawn) [drawing 1108, 2-methylthio-5-[( -- Z)-4,7-dihydroxy-2-heptenylidene]-4-(4-phenoxybutylidene)-2-cyclopentenone] showed an ALP ([4]; 10^-6 M) of 0.75 ± 0.17 OD 415 nm/dish, a P ([4]; 10^-6 M) of 57 ± 1 μg/dish and a Ca ([4]; 10^-6 M) of 105 μg/dish. It also gave an ALP ([4]; 10^-7 M) of 0.69 ± 0.02 OD 415 nm/dish, a P ([4]; 10^-7 M) of 60 ± 14 μg/dish and a Ca ([4]; 10^-7 M) of 110 ± 30 μg/dish.
Work on `C[S+]([O-])C1=CC(O)(CCCCOc2ccccc2)/C(=C/C=C/C(O)CCCO)C1=O` (stereo not drawn) [drawing 1109, 2-methylsulfinyl-5-[( -- Z)-4,7-dihydroxy-2-heptenylidene]-4-(4-phenoxybutylidene)-4-hydroxy-2-cyclopentenone] yielded an ALP ([4]; 10^-6 M) of 0.92 ± 0.9 OD 415 nm/dish, a P ([4]; 10^-6 M) of 61 ± 4 μg/dish and a Ca ([4]; 10^-6 M) of 109 μg/dish. The ALP ([4]; 10^-7 M) was 0.81 ± 0.11 OD 415 nm/dish, the P ([4]; 10^-7 M) was 52 ± 1 μg/dish and the Ca ([4]; 10^-7 M) was 89 ± 1 μg/dish.
`CCCCCC(O)C=CC1C=C(SC)C(=O)C1=CCCCCCC(=O)OC` (stereo not drawn) [drawing 1111, 2-methylthio-5-(6-methoxy-carbonylhexylidene)-4-(3-hydroxy-1-octenyl)-2-cyclo-pentenone] showed an ALP ([4]; 10^-6 M) of 0.68 ± 0.10 OD 415 nm/dish, a P ([4]; 10^-6 M) of 43 ± 4 μg/dish and a Ca ([4]; 10^-6 M) of 79 μg/dish. For the same compound, the ALP ([4]; 10^-7 M) was 0.73 ± 0.02 OD 415 nm/dish, the P ([4]; 10^-7 M) was 46 ± 2 μg/dish and the Ca ([4]; 10^-7 M) was 78 ± 4 μg/dish.
In the case of `CCCCC[C@H](O)/C=C/[C@H]1C(=O)C[C@H](O)[C@@H]1C/C=C\CCCC(=O)O` [prostaglandin D2], the “calcification by human osteoblasts” value [6] is given as “accelerated”.
